How the values were obtained:
[1] = species: Homo sapiens; experiment: Selectivity ratio for human HDAC4 over human HDAC3
[2] = species: Homo sapiens; experiment: Selectivity ratio for human HDAC4 over human HDAC8
[3] = species: Homo sapiens; experiment: Selectivity ratio for human HDAC4 over human HDAC1
[4] = species: Homo sapiens; experiment: Selectivity ratio for human HDAC4 over human HDAC2

Selectivity ratio [1]: 176
Selectivity ratio [2]: 176
Selectivity ratio [3]: 176
Selectivity ratio [4]: 176
Compound: Cn1cc(/C=C/C(=O)c2cccc(F)c2)cc1/C=C/C(=O)NO

From ChEMBL document CHEMBL2396570, “Structural basis for the design and synthesis of selective HDAC inhibitors” (Bioorg Med Chem, 2013)
